The results in this text go back to patent US6117841A, “Substituted peptidylamine calcium channel blockers” (Warner-Lambert Company, priority 1999, dated 2000).

This experiment deals with T1, N-type Ca^2+ Channel (Homo sapiens, UniProt Q00975).
T1 construct: host or cells: IMR-32 cells differentiated with dibutyryl cAMP and bromodeoxyuridine
In words: Measurement of N-type Ca2+ channel blocking potencies in IMR-32 cells using the fluorescent Ca2+ indicator Indo-1. Format: cell-based. Particulars: for IC50: read-out: IMR 32 IC50. Here is the method:
Measurement of N-type Ca^2+ Channel Blocking Potencies of Compounds in IMR-32 Cells Using the Fluorescent Ca^2 + Indicator Indo-1
IMR-32 cells are a human tumoral cell line of neural origin. […] Calcium flux into these cells may be induced by stimulation with elevated potassium concentrations. The L-channel component of calcium flux may be blocked by adding 5 μM nitrendipine. The remaining component of calcium entry into the IMR-32 cells is due to calcium flux through N-type calcium channels. Intracellular calcium concentrations are measured using the fluorescent calcium indicator Indo-1. The effect of drug concentration on calcium uptake is studied.
The IMR-32 cell line was obtained from the American Type Culture Collection (Rockville, Md.). Cells were grown in Eagle's Minimum Essential Medium with Earle's salts supplemented with 10% fetal bovine serum, 2 mM L-Gln and antibiotic/antimycotic mixture (Gibco). At approximately 80% confluency, differentiation was induced by the addition of 1 mM dibutyryl cAMP and 2.5 μM bromodeoxyuridine to the medium. After 7 to 13 days of differentiation, cells were detached using 0.5 mM EDTA and loaded with 5 μM Indo-1 acetoxymethyl ester (Molecular Probes, Eugene, Oreg.) at 30° C. for 45 minutes. Loaded cells were washed twice, resuspended (~10^7 cells/mL) in assay buffer (10 mM HEPES/Tris pH 7.4 in Hank's Balanced Salt Solution without bicarbonate or phenol red containing 0.5% bovine serum albumin) and kept on ice until use. Fluorescence measurements were carried out in a Photon Technology International (PTI, South Brunswick, N.J.) Model RF-F3004 spectrofluorometer with dual emission monochromators using excitation at 350 nm and emission at 400 and 490 nm. The instrument was equipped with a thermostated cuvette holder with stirring capabilities as well as with a computer-controlled pump which allowed for reagent addition during measurement. Instrument control and data collection was done by PTI's OSCAR software running on an IBM compatible computer. Different concentrations of the test compounds (60 μL in dimethyl sulfoxide) were added to 5.94 mL of assay buffer containing approximately 3×10^6 loaded cells, and 5 μM nitrendipine (in 30 μL EtOH) to block L-type Ca^2+ channels. Samples were incubated for 10 minutes at 30° C. and then aliquoted into three 10×10 mm disposable acrylic cuvettes. Emission signals at 400 and 490 nm were acquired from each cuvette at 30° C. for 50 seconds. At 20 seconds after the start of reading, cells were depolarized by the addition of 160 μL of stimulation solution (1 M KCl, 68 mM CaCl2) to the cuvette via the computer-controlled pump. Ratio of dual emission signals (400 nm/ 490 nm), which is proportional to intracellular Ca^2+ concentration, was plotted against time, and the difference between maximal response after stimulation and basal value (before stimulation) was determined. Values obtained in this way were plotted as a function of drug concentration. IC50 values of test compounds were calculated by fitting a four-parameter logistic function to the data using the least squares method.

Where [1] appears, read: IMR-32 cells, K+ depolarization, 5 μM nitrendipine to block L-type channels.
Where [2] appears, read: IMR-32 cells, 5 μM nitrendipine.

Like-named read-outs stand apart in the source and are kept apart here.

Broadly, the IC50 is the midpoint of a concentration-inhibition curve.

T1 sequence (Q00975 whole entry): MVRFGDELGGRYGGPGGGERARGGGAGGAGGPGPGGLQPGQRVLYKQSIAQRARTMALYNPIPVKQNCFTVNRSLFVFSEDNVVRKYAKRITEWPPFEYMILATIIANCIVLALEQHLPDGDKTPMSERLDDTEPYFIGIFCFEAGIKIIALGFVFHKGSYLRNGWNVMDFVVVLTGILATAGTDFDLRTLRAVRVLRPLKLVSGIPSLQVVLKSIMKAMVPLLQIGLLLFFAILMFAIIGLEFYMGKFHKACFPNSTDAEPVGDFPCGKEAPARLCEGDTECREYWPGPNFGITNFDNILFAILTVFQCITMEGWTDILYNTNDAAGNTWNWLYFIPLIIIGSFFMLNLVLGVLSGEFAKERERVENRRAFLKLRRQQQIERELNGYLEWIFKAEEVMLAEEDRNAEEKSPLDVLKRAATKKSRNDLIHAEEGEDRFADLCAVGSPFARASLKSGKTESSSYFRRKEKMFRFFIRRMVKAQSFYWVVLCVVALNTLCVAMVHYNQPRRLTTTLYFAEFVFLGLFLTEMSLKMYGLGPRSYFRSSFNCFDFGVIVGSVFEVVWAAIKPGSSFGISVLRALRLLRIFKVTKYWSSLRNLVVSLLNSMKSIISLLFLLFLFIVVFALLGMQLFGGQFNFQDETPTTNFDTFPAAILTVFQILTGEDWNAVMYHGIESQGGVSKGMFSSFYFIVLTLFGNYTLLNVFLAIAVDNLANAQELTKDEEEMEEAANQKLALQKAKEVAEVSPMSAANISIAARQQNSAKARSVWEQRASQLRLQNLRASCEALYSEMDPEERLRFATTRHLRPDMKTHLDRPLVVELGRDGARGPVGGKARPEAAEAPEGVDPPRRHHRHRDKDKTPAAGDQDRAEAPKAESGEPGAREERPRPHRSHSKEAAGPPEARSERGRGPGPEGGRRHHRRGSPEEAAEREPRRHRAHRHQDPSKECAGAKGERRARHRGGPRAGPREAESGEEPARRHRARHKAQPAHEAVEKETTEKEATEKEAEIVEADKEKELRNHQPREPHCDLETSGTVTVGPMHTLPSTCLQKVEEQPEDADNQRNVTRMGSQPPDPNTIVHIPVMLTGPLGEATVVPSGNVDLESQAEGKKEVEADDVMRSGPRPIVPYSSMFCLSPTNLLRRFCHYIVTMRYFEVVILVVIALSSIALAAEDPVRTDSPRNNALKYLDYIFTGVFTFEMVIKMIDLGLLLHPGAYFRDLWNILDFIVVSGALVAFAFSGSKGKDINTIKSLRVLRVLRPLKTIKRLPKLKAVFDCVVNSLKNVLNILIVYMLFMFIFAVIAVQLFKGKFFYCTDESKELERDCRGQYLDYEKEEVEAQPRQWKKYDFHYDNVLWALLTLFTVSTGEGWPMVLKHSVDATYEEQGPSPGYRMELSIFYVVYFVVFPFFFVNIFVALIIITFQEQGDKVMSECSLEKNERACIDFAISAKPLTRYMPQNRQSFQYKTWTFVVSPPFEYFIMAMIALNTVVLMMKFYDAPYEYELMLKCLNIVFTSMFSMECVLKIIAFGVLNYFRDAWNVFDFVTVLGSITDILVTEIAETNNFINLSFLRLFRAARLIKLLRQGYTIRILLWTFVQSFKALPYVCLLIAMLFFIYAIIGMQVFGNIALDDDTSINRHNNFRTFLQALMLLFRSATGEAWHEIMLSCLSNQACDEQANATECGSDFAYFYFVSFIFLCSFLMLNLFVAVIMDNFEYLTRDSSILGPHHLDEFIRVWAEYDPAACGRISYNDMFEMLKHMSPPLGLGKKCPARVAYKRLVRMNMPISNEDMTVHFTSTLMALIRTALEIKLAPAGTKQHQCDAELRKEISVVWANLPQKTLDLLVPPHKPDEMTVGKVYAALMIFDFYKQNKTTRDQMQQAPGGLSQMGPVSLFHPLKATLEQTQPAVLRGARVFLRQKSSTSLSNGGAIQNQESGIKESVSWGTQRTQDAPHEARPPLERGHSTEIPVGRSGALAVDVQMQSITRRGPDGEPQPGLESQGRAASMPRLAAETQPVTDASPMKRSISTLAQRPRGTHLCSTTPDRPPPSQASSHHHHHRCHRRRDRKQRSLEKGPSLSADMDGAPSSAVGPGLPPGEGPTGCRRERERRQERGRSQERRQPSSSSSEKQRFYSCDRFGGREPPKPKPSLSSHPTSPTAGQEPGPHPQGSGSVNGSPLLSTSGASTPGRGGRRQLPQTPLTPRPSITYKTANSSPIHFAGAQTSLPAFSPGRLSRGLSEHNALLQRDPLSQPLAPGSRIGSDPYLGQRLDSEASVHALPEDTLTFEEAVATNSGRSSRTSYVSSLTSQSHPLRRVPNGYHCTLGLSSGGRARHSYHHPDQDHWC
T1 sequence (P54284 whole entry partner): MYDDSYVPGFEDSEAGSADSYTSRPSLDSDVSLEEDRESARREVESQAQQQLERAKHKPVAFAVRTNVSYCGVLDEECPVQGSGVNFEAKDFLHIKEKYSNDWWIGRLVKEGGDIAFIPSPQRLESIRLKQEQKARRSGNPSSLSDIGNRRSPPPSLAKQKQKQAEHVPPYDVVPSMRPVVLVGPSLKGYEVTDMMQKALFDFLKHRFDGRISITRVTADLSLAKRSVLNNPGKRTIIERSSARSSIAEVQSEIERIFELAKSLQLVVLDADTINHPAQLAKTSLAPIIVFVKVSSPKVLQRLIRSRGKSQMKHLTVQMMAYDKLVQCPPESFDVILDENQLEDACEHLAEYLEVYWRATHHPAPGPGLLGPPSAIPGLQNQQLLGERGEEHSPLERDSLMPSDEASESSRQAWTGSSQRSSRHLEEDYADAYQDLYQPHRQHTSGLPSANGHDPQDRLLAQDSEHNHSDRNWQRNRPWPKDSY
T1 sequence (P54289 25-946 partner limits assumed): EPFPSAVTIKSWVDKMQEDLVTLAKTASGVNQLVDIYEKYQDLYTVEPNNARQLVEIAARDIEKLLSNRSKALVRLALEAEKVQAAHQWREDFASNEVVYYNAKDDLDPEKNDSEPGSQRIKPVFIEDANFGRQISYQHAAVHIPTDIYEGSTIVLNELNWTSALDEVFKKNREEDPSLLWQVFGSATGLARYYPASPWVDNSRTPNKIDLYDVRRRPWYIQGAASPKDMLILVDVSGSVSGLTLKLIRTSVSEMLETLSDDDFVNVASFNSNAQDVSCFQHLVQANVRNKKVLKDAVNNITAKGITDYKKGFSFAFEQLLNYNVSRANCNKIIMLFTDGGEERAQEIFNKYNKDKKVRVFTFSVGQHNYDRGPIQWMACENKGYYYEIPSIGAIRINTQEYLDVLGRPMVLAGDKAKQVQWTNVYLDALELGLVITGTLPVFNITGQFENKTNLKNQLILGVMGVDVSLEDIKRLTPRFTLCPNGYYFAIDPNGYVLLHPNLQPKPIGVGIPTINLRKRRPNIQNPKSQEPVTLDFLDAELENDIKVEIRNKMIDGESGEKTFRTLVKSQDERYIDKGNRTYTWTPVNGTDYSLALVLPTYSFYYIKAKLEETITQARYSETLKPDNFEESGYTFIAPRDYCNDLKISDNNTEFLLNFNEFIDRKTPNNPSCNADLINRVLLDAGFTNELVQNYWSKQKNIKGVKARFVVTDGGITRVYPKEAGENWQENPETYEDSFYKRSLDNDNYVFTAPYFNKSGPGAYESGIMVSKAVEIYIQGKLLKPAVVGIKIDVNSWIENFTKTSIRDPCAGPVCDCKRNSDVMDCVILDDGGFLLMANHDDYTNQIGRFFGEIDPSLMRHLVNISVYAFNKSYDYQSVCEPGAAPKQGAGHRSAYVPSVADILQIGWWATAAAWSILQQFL
T1 sequence (P54289 947-1103 partner limits assumed): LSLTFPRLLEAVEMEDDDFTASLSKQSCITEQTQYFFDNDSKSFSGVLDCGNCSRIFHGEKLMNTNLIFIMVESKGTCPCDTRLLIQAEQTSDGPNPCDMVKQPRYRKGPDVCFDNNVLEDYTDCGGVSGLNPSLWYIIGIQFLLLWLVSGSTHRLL

`CC(C)C[C@@H](C(=O)N[C@@H](Cc1ccc(OCc2ccccc2)cc1)C(=O)NC1CCN(Cc2ccccc2)CC1)N(C)CC1CCCCC1` (relative stereo) [Example 29, [S-(R*,R*)]-2-(Cyclohexylmethyl-methyl-amino)-4-methyl-pentanoic acid [2-(4-benzyloxy-phenyl)-1-(1-benzyl-piperidin-4-ylcarbamoyl)-ethyl]-amide]: under setting [1], the IC50 amounted to 0.6 µM. Still for that read-out and setting: next, `CC(C)C[C@H](NCc1ccc(C(C)(C)C)cc1)C(=O)N[C@@H](Cc1ccc(OCc2ccccc2)cc1)C(=O)OC(C)(C)C` (relative stereo) [Example 32, [S-(R*,R*)]-3-(4-Benzyloxy-phenyl)-2-[2-(4-tert-butyl-benzylamino)-4-methyl-pentanoylamino]-propionic acid tert-butyl ester]: 0.25 µM. As to `CC(C)C[C@H](NCc1ccccc1)C(=O)N[C@@H](Cc1ccc(OCc2ccccc2)cc1)C(=O)OC(C)(C)C` (relative stereo) [Example 33, [S-(R*,R*)]-2-(2-Benzylamino-4-methyl-pentanoylamino)-3-(4-benzyloxy-phenyl)-propionic acid tert-butyl ester], under setting [2], the “IMR 32 % of Blockade @ 1 μM” value turned out to be 52% and the “IMR 32 % of Blockade @ 10 μM” value was found to be 95%. For `CN[C@@H](CC(C)C)C(=O)N[C@@H](Cc1ccc(OCc2ccccc2)cc1)C(=O)NC(C)(C)C` (relative stereo) [Example 35, [S-(R*,R*)]-4-Methyl-2-methylamino-pentanoic acid [2-(4-benzyloxy-phenyl)-1-tert-butylcarbamoyl-ethyl]-amide], the IC50 under setting [1] came to 2.3 µM. Still for that read-out and setting: as for `CC(C)C[C@@H](C(=O)N[C@@H](Cc1ccc(OCc2ccccc2)cc1)C(=O)NC(C)(C)C)N(C)CCC(C)(C)C` (relative stereo) [Example 36, [S-(R*,R*)]-2-[(3,3-Dimethyl-butyl)-methyl-amino]-4-methyl-pentanoic acid [2-(4-benzyloxy-phenyl)-1-tert-butylcarbamoyl-ethyl]-amide], the figure is 0.4 µM. Regarding `CC(C)C[C@@H](C(=O)N[C@@H](Cc1ccc(OCc2ccccc2)cc1)C(=O)NC(C)(C)C)N(C)C1CCC(C(C)(C)C)CC1` (relative stereo) [Example 38, [S-(R*,R*)]-2-[(4-tert-Butyl-cyclohexyl)-methyl-amino]-4-methyl-pentanoic acid [2-(4-benzyloxy-phenyl)-1-tert-butylcarbamoyl-ethyl]-amide], under setting [2], the “IMR 32 % of Blockade @ 1 μM” value turned out to be 23%. As for `CC(C)C[C@@H](C(=O)N[C@@H](Cc1ccc(OCc2ccccc2)cc1)C(=O)NC(C)(C)C)N(C)C1CCC(C)CC1` (relative stereo) [Example 39, [S-(R*,R*)]-4-Methyl-2-[methyl-(4-methyl-cyclohexyl)-amino]-pentanoic acid [2-(4-benzyloxy-phenyl)-1-tert-butylcarbamoyl-ethyl]-amide], under setting [1], the concentration for half-maximal inhibition (IC50) came out at 0.39 µM.

`CC(C)C[C@@H](C(=O)N[C@@H](Cc1ccc(OCc2ccccc2)cc1)C(=O)NC(C)(C)C)N(C)Cc1ccc(N(C)C)cc1` (relative stereo) [Example 40, [S-(R*,R*)]-2-[(4-Dimethylamino-benzyl)-methyl-amino]-4-methyl-pentanoic acid [2-(4-benzyloxy-phenyl)-1-tert-butylcarbamoyl-ethyl]-amide]: the IC50 was determined as 0.28 µM. For `CCCCN(C)[C@@H](CC(C)C)C(=O)N[C@@H](Cc1ccc(OCc2ccccc2)cc1)C(=O)NC(C)(C)C` (relative stereo) [Example 41, [S-(R*,R*)]-2-(Butyl-methyl-amino)-4-methyl-pentanoic acid [2-(4-benzyloxy-phenyl)-1-tert-butylcarbamoyl-ethyl]-amide], the IC50 under setting [1] was determined as 0.28 µM. For the compound `CC(C)C[C@@H](C(=O)N[C@@H](Cc1ccc(OCc2ccccc2)cc1)C(=O)NC(C)(C)C)N(C)CC(C)C` (relative stereo) [Example 42, [S-(R*,R*)]-2-(Isobutyl-methyl-amino)-4-methyl-pentanoic acid [2-(4-benzyloxy-phenyl)-1-tert-butylcarbamoyl-ethyl]-amide], the IC50 under setting [1] worked out at 0.38 µM. On to `CN[C@@H](CC(C)C)C(=O)N[C@@H](Cc1ccc(OCc2ccccc2)cc1)C(=O)N1CCN(Cc2ccccc2)CC1` (relative stereo) [Example 43, [S-(R*,R*)]-4-Methyl-2-methylamino-pentanoic acid [1-(4-benzyloxy-benzyl)-2-(4-benzyl-piperazin-1-yl)-2-oxo-ethyl]-amide], for which, under setting [2], the “IMR 32 % of Blockade @ 1 μM” value was found to be 51% and the “IMR 32 % of Blockade @ 10 μM” value is on record as 96%. Turning to `CCC[C@@H](C(=O)N[C@@H](Cc1ccc(OCc2ccccc2)cc1)C(=O)NC(C)(C)C)N(C)CCC(C)C` (relative stereo) [Example 46, [S-(R*,R*)]-4-Methyl-2-[methyl-(3-methyl-butyl)-amino]-butyric acid [2-(4-benzyloxy-phenyl)-1-tert-butylcarbamoyl-ethyl]-amide], the “IMR 32 % of Blockade @ 0.3 μM” value (0.3 μM, IMR-32 cells, 5 μM nitrendipine) is listed as 36%. Besides, the “IMR 32 % of Blockade @ 3 μM” value (3 μM, IMR-32 cells, 5 μM nitrendipine) turned out to be 74%. As to `CC(C)C[C@H](N[C@@H]1C=CCCC1)C(=O)NC(Cc1ccc(OCc2ccccc2)cc1)C(=O)NC(C)(C)C` (relative stereo) [Example 49, [S-(R*,R*)]-2-(Cyclohex-2-enylamino)-4-methyl-pentanoic acid [2-(4-benzyloxy-phenyl)-1-tert-butylcarbamoyl-ethyl]-amide], under setting [1], the 50% inhibitory concentration (IC50) came out at 0.66 µM.

On to `CC(C)=CCN(C)[C@@H](CC(C)C)C(=O)N[C@@H](Cc1ccc(OCc2ccccc2)cc1)C(=O)NC(C)(C)C` (relative stereo) [Example 51, [S-(R*,R*)]4-Methyl-2-[methyl-(3-methyl-but-2-enyl)-amino]-pentanoic acid [2-(4-benzyloxy-phenyl)-1-tert-butylcarbamoyl-ethyl]-amide], for which the concentration for half-maximal inhibition (IC50) under setting [1] stood at 1.3 µM. On to `CC(C)C[C@H](NCc1ccc(C(C)(C)C)cc1)C(=O)N[C@@H](Cc1ccc(OCc2ccccc2)cc1)C(=O)N1CCN(Cc2ccccc2)CC1` (relative stereo) [Example 52, [S-(R*,R*)]-2-(4-tert-Butyl-benzylamino)-4-methyl-pentanoic acid [1-(4-benzyloxy-benzyl)-2-(4-benzyl-piperazin-1-yl)-2-oxo-ethyl]-amide], for which the IC50 under setting [1] came out at 0.77 µM.

Turning to `CC(C)=CCN[C@@H](CC(C)C)C(=O)N[C@@H](Cc1ccc(OCc2ccccc2)cc1)C(=O)N1CCN(Cc2ccccc2)CC1` (relative stereo) [Example 53, [S-(R*,R*)]-4-Methyl-2-(3-methyl-but-2-enylamino)-pentanoic acid [1-(4-benzyloxy-benzyl)-2-(4-benzyl-piperazin-1-yl)-2-oxo-ethyl]-amide], under setting [1], the IC50 worked out at 0.7 µM.

On to `CC(C)CCN(C)[C@@H](CC(C)C)C(=O)N[C@@H](Cc1ccc(OCc2ccccc2)cc1)C(=O)NCCN1CCOCC1` (relative stereo) [Example 57, [S-(R*,R*)]-4-Methyl-2-[methyl-(3-methyl-butyl)-amino]-pentanoic acid [2-(4-benzyloxy-phenyl)-1-(2-morpholin-4-yl-ethylcarbamoyl)-ethyl]-amide], for which, under setting [1], the IC50 was determined as 2.1 µM. Still for that read-out and setting: next, `CC(C)CCN(C)[C@@H](CC(C)C)C(=O)N[C@@H](Cc1ccc(OCc2ccccc2)cc1)C(=O)NCCc1ccccn1` (relative stereo) [Example 58, [S-(R*,R*)]-4-Methyl-2-[methyl-(3-methyl-butyl)-amino]-pentanoic acid [2-(4-benzyloxy-phenyl)-1-(2-pyridin-2-yl-ethylcarbamoyl)-ethyl]-amide]: 1 µM; `CC(C)CCN(C)[C@@H](CC(C)C)C(=O)N[C@@H](Cc1ccc(OCc2ccccc2)cc1)C(=O)NCCCn1ccnc1` (relative stereo) [Example 59, [S-(R*,R*)]-4-Methyl-2-[methyl-(3-methyl-butyl)-amino]-pentanoic acid [2-(4-benzyloxy-phenyl)-1-(3-imidazol-1-yl-propylcarbamoyl)-ethyl]-amide]: 1.6 µM.
